# In PubChem BioAssay (NCI):
#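 1) Cells in 96-well plates. 2) Compound, 48 h, 5 concentrations. 3) Linear interpolation between surrounding doses. 4) Unreached endpoint = highest concentration. GI50: concentration for 50% inhibition of growth. TGI marks complete inhibition of growth.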
# How the values were obtained:
# Assay in all cases: NCI-60 cell line screen, 48 h
# 786-0 renal = system: 786-0 renal
# A498 renal = system: A498 renal
# ACHN renal = system: ACHN renal
# CAKI-1 renal = system: CAKI-1 renal
# CCRF-CEM leukemia = system: CCRF-CEM leukemia
# COLO 205 colon = system: COLO 205 colon
# EKVX NSCLC = system: EKVX NSCLC
# HCC-2998 colon = system: HCC-2998 colon
# HCT-116 colon = system: HCT-116 colon
# HCT-15 colon = system: HCT-15 colon
# HL-60(TB) leukemia = system: HL-60(TB) leukemia
# HS 578T breast = system: HS 578T breast
# K-562 leukemia = system: K-562 leukemia
# KM12 colon = system: KM12 colon
# M14 melanoma = system: M14 melanoma
# MALME-3M melanoma = system: MALME-3M melanoma
# MCF7 breast = system: MCF7 breast
# MDA-MB-468 breast = system: MDA-MB-468 breast
# NCI-H23 lung = system: NCI-H23 lung
# OVCAR-3 ovarian = system: OVCAR-3 ovarian
# OVCAR-4 ovarian = system: OVCAR-4 ovarian
# OVCAR-5 ovarian = system: OVCAR-5 ovarian
# PC-3 prostate = system: PC-3 prostate
# RPMI-8226 leukemia = system: RPMI-8226 leukemia
# RXF 393 renal = system: RXF 393 renal
# SF-268 CNS = system: SF-268 CNS
# SF-295 CNS = system: SF-295 CNS
# SF-539 CNS = system: SF-539 CNS
# SK-MEL-2 melanoma = system: SK-MEL-2 melanoma
# SK-MEL-28 melanoma = system: SK-MEL-28 melanoma
# SK-MEL-5 melanoma = system: SK-MEL-5 melanoma
# SK-OV-3 ovarian = system: SK-OV-3 ovarian
# SN12C renal = system: SN12C renal
# SNB-19 CNS = system: SNB-19 CNS
# SR leukemia = system: SR leukemia
# TK-10 renal = system: TK-10 renal
# UACC-257 melanoma = system: UACC-257 melanoma
# UACC-62 melanoma = system: UACC-62 melanoma
# UO-31 renal = system: UO-31 renal
# A549 NSCLC = system: A549 NSCLC
# BT-549 breast = system: BT-549 breast
# DU-145 prostate = system: DU-145 prostate
# HOP-62 NSCLC = system: HOP-62 NSCLC
# HOP-92 NSCLC = system: HOP-92 NSCLC
# HT29 colon = system: HT29 colon
# IGROV1 ovarian = system: IGROV1 ovarian
# LOX IMVI melanoma = system: LOX IMVI melanoma
# MDA-MB-435 = system: MDA-MB-435
# MOLT-4 leukemia = system: MOLT-4 leukemia
# NCI-H226 lung = system: NCI-H226 lung
# NCI-H460 lung = system: NCI-H460 lung
# NCI-H522 lung = system: NCI-H522 lung
# NCI/ADR-RES ovarian = system: NCI/ADR-RES ovarian
# OVCAR-8 ovarian = system: OVCAR-8 ovarian
# SNB-75 CNS = system: SNB-75 CNS
# SW-620 colon = system: SW-620 colon
# T-47D breast = system: T-47D breast
# U251 CNS = system: U251 CNS
compound,measurement,setting,value
Cn1cc(-c2cc(N)n3nc(-c4c[nH]c5ccc(Cl)cc45)cc3n2)c2cccnc21,GI50,786-0 renal,1.56 µM
same,TGI,786-0 renal,2.91 µM
same,GI50,A498 renal,20.1 µM
same,TGI,A498 renal,37.7 µM
same,GI50,ACHN renal,1.72 µM
same,TGI,ACHN renal,3.17 µM
same,GI50,CAKI-1 renal,1.64 µM
same,TGI,CAKI-1 renal,3.5 µM
same,GI50,CCRF-CEM leukemia,2.51 µM
same,TGI,CCRF-CEM leukemia,9.05 µM
same,GI50,COLO 205 colon,1.75 µM
same,TGI,COLO 205 colon,3.27 µM
same,GI50,EKVX NSCLC,1.85 µM
same,TGI,EKVX NSCLC,4.53 µM
same,GI50,HCC-2998 colon,1.76 µM
same,TGI,HCC-2998 colon,3.2 µM
same,GI50,HCT-116 colon,1.81 µM
same,TGI,HCT-116 colon,3.29 µM
same,GI50,HCT-15 colon,1.79 µM
same,TGI,HCT-15 colon,3.94 µM
same,GI50,HL-60(TB) leukemia,1.8 µM
same,TGI,HL-60(TB) leukemia,5.47 µM
same,GI50,HS 578T breast,1.97 µM
same,TGI,HS 578T breast,5.08 µM
same,GI50,K-562 leukemia,2.76 µM
same,TGI,K-562 leukemia,> 100 µM
same,GI50,KM12 colon,2.03 µM
same,TGI,KM12 colon,4.18 µM
same,GI50,M14 melanoma,1.81 µM
same,TGI,M14 melanoma,3.42 µM
same,GI50,MALME-3M melanoma,1.62 µM
same,TGI,MALME-3M melanoma,3.04 µM
same,GI50,MCF7 breast,1.77 µM
same,TGI,MCF7 breast,3.93 µM
same,GI50,MDA-MB-468 breast,1.56 µM
same,TGI,MDA-MB-468 breast,3.25 µM
same,GI50,NCI-H23 lung,1.71 µM
same,TGI,NCI-H23 lung,3.39 µM
same,GI50,OVCAR-3 ovarian,1.68 µM
same,TGI,OVCAR-3 ovarian,3.27 µM
same,GI50,OVCAR-4 ovarian,1.79 µM
same,TGI,OVCAR-4 ovarian,3.76 µM
same,GI50,OVCAR-5 ovarian,1.73 µM
same,TGI,OVCAR-5 ovarian,3.62 µM
same,GI50,PC-3 prostate,2.54 µM
same,TGI,PC-3 prostate,8.68 µM
same,GI50,RPMI-8226 leukemia,2.6 µM
same,TGI,RPMI-8226 leukemia,> 100 µM
same,GI50,RXF 393 renal,1.49 µM
same,TGI,RXF 393 renal,2.9 µM
same,GI50,SF-268 CNS,2.06 µM
same,TGI,SF-268 CNS,4.82 µM
same,GI50,SF-295 CNS,1.65 µM
same,TGI,SF-295 CNS,3.13 µM
same,GI50,SF-539 CNS,1.62 µM
same,TGI,SF-539 CNS,3.01 µM
same,GI50,SK-MEL-2 melanoma,12.3 µM
same,TGI,SK-MEL-2 melanoma,24.7 µM
same,GI50,SK-MEL-28 melanoma,1.53 µM
same,TGI,SK-MEL-28 melanoma,2.9 µM
same,GI50,SK-MEL-5 melanoma,1.65 µM
same,TGI,SK-MEL-5 melanoma,3.06 µM
same,GI50,SK-OV-3 ovarian,2.03 µM
same,TGI,SK-OV-3 ovarian,4.76 µM
same,GI50,SN12C renal,1.52 µM
same,TGI,SN12C renal,3.13 µM
same,GI50,SNB-19 CNS,2.6 µM
same,TGI,SNB-19 CNS,6.74 µM
same,GI50,SR leukemia,2.3 µM
same,TGI,SR leukemia,> 100 µM
same,GI50,TK-10 renal,2.02 µM
same,TGI,TK-10 renal,4.64 µM
same,GI50,UACC-257 melanoma,1.9 µM
same,TGI,UACC-257 melanoma,3.87 µM
same,GI50,UACC-62 melanoma,1.63 µM
same,TGI,UACC-62 melanoma,3.07 µM
same,GI50,UO-31 renal,1.55 µM
same,TGI,UO-31 renal,3.05 µM
CCCCCCCCCCCCCCCCCCCC(=O)NCCc1c[nH]c2ccc(OC(=O)CCCC(=O)OCCOOCCOOCCOOCCOOCCOOCCOOCCOOCCOOCCOOCCOOCCOOCCOC)cc12,GI50,786-0 renal,> 100 µM
same,TGI,786-0 renal,> 100 µM
same,GI50,A498 renal,> 100 µM
same,TGI,A498 renal,> 100 µM
same,GI50,A549 NSCLC,21.7 µM
same,TGI,A549 NSCLC,62.3 µM
same,GI50,ACHN renal,25.2 µM
same,TGI,ACHN renal,> 100 µM
same,GI50,BT-549 breast,4.15 µM
same,TGI,BT-549 breast,14 µM
same,GI50,CAKI-1 renal,34 µM
same,TGI,CAKI-1 renal,> 100 µM
same,GI50,CCRF-CEM leukemia,0.769 µM
same,TGI,CCRF-CEM leukemia,8.4 µM
same,GI50,COLO 205 colon,> 100 µM
same,TGI,COLO 205 colon,> 100 µM
same,GI50,DU-145 prostate,24.8 µM
same,TGI,DU-145 prostate,> 100 µM
same,GI50,EKVX NSCLC,26.9 µM
same,TGI,EKVX NSCLC,> 100 µM
same,GI50,HCC-2998 colon,44.7 µM
same,TGI,HCC-2998 colon,> 100 µM
same,GI50,HCT-116 colon,30.7 µM
same,TGI,HCT-116 colon,> 100 µM
same,GI50,HCT-15 colon,31 µM
same,TGI,HCT-15 colon,> 100 µM
same,GI50,HL-60(TB) leukemia,2.53 µM
same,TGI,HL-60(TB) leukemia,10.3 µM
same,GI50,HOP-62 NSCLC,26.7 µM
same,TGI,HOP-62 NSCLC,> 100 µM
same,GI50,HOP-92 NSCLC,18.6 µM
same,TGI,HOP-92 NSCLC,44.8 µM
same,GI50,HS 578T breast,38.7 µM
same,TGI,HS 578T breast,> 100 µM
same,GI50,HT29 colon,32.9 µM
same,TGI,HT29 colon,> 100 µM
same,GI50,IGROV1 ovarian,16.2 µM
same,TGI,IGROV1 ovarian,38.9 µM
same,GI50,K-562 leukemia,5.59 µM
same,TGI,K-562 leukemia,26.4 µM
same,GI50,KM12 colon,17.5 µM
same,TGI,KM12 colon,52.6 µM
same,GI50,LOX IMVI melanoma,13.4 µM
same,TGI,LOX IMVI melanoma,33.1 µM
same,GI50,M14 melanoma,29 µM
same,TGI,M14 melanoma,> 100 µM
same,GI50,MALME-3M melanoma,54.3 µM
same,TGI,MALME-3M melanoma,> 100 µM
same,GI50,MCF7 breast,24.1 µM
same,TGI,MCF7 breast,> 100 µM
same,GI50,MDA-MB-435,41.2 µM
same,TGI,MDA-MB-435,> 100 µM
same,GI50,MDA-MB-468 breast,29.6 µM
same,TGI,MDA-MB-468 breast,> 100 µM
same,GI50,MOLT-4 leukemia,4.61 µM
same,TGI,MOLT-4 leukemia,23 µM
same,GI50,NCI-H226 lung,14 µM
same,TGI,NCI-H226 lung,33.1 µM
same,GI50,NCI-H23 lung,18.9 µM
same,TGI,NCI-H23 lung,42.4 µM
same,GI50,NCI-H460 lung,27.9 µM
same,TGI,NCI-H460 lung,> 100 µM
same,GI50,NCI-H522 lung,2.7 µM
same,TGI,NCI-H522 lung,9.36 µM
same,GI50,NCI/ADR-RES ovarian,21.8 µM
same,TGI,NCI/ADR-RES ovarian,72 µM
same,GI50,OVCAR-3 ovarian,10.7 µM
same,TGI,OVCAR-3 ovarian,25.6 µM
same,GI50,OVCAR-4 ovarian,20.8 µM
same,TGI,OVCAR-4 ovarian,95.1 µM
same,GI50,OVCAR-5 ovarian,68 µM
same,TGI,OVCAR-5 ovarian,> 100 µM
same,GI50,OVCAR-8 ovarian,16 µM
same,TGI,OVCAR-8 ovarian,38.5 µM
same,GI50,PC-3 prostate,11.6 µM
same,TGI,PC-3 prostate,49.5 µM
same,GI50,RPMI-8226 leukemia,3.22 µM
same,TGI,RPMI-8226 leukemia,26.5 µM
same,GI50,RXF 393 renal,18.9 µM
same,TGI,RXF 393 renal,39.2 µM
same,GI50,SF-268 CNS,15.2 µM
same,TGI,SF-268 CNS,47.1 µM
same,GI50,SF-295 CNS,15.7 µM
same,TGI,SF-295 CNS,31.6 µM
same,GI50,SF-539 CNS,11 µM
same,TGI,SF-539 CNS,25.3 µM
same,GI50,SK-MEL-2 melanoma,26.1 µM
same,TGI,SK-MEL-2 melanoma,> 100 µM
same,GI50,SK-MEL-28 melanoma,> 100 µM
same,TGI,SK-MEL-28 melanoma,> 100 µM
same,GI50,SK-MEL-5 melanoma,40.8 µM
same,TGI,SK-MEL-5 melanoma,> 100 µM
same,GI50,SK-OV-3 ovarian,> 100 µM
same,TGI,SK-OV-3 ovarian,> 100 µM
same,GI50,SN12C renal,12.6 µM
same,TGI,SN12C renal,33.2 µM
same,GI50,SNB-19 CNS,22.4 µM
same,TGI,SNB-19 CNS,62.8 µM
same,GI50,SNB-75 CNS,> 100 µM
same,TGI,SNB-75 CNS,> 100 µM
same,GI50,SW-620 colon,35.5 µM
same,TGI,SW-620 colon,> 100 µM
same,GI50,T-47D breast,14.9 µM
same,TGI,T-47D breast,> 100 µM
same,GI50,TK-10 renal,> 100 µM
same,TGI,TK-10 renal,> 100 µM
same,GI50,U251 CNS,17.1 µM
same,TGI,U251 CNS,33.9 µM
same,GI50,UACC-257 melanoma,> 100 µM
same,TGI,UACC-257 melanoma,> 100 µM
same,GI50,UACC-62 melanoma,34.8 µM
same,TGI,UACC-62 melanoma,> 100 µM
